From publication PMC5369532, “NMR-filtered virtual screening leads to non-metal chelating metallo-β-lactamase inhibitors” (Chemical Science, 2016)
“Also recorded” adds a separate entry of the source. Read-outs that look alike come from different tables or passages of the source.

What was measured:
VIM-2 = molecular target: T1, VIM-2 (Escherichia coli, UniProt Q5U7L7); experiment: biochemical; type: biochemical; conditions: for differences between the inhibitory activity with or without excess Zn(II): 0 μM, 1 μM and 100 μM Zn(II)
T1 construct: made in house; host or cells: Escherichia coli
Method: (§1) Except where noted, recombinant forms of NDM-1, VIM-2, SPM-1, IMP-1, and BcII MBLs were produced in Escherichia coli and assays were carried out as described previously10. The IC50 values of all the compounds for VIM-2 were determined using […]
concentrations (0 μM, 1 μM, and 100 μM, see Fig. S8). The selectivity profiles of […]
as described above. The inhibitory activities of these compounds against CphA (B2 […]
MBL; IMP, Imipenemase; NDM, New Delhi MBL; TEM-1: Temomeira-type 1 […]
b The enzyme concentrations of the purified proteins were determined by measuring Abs@280nm using a NanoDrop (ThermoFisher) spectrometer and calculated molar extinction coefficient for each sample; concentrations of diluted solutions used in the assay were calculated from the original concentration. […]
negative controls. These were tested in same assay conditions but at 2mM instead of 100uM compound concentration. […]

apo-VIM-2 = apo-VIM-2 (Escherichia coli, UniProt Q5U7L7); type: binding; conditions: 50 μM apo enzyme, 50 μM compound, 50 mM Tris-D11 pH 7.5
Method: (§2) Except where noted, recombinant forms of NDM-1, VIM-2, SPM-1, IMP-1, and BcII MBLs were produced in Escherichia coli and assays were carried out as described […]
(§3) previously10. […]
(§4) Nuclear Magnetic Resonance (NMR) spectra were recorded using a Bruker AVIII 600 MHz NMR spectrometer equipped with a BB-19F/1H Prodigy N2 cryoprobe using 5 mm diameter NMR tubes (Norell). Typical experimental parameters for Carr-Purcell-Meiboom-Gill (CPMG) NMR spectroscopy were: total echo time, 40 ms; […]
(§5) The PROJECT-CPMG sequence
(§6) (90°x−[τ−180°y−τ−90°y−τ−180°y−τ]n−acq) was applied. 15 Water suppression was achieved by pre-saturation. Data were processed with Bruker 3.1 software. Prior to […]
(§7) Fourier transformation, data were multiplied with an exponential function with 0.5 Hz […]
(§8) line broadening. […]

di-Zn(II) VIM-2 = molecular target: T2, di-Zn(II) VIM-2 (Escherichia coli, UniProt Q5U7L7); type: binding; conditions: 50 μM enzyme, 50 μM Zn(II), 50 μM compound, 50 mM Tris-D11 pH 7.5
T2 construct: made in house
Method: as §2, §3, §4, §5, §6, §7, §8

class B MBLs = experiment: Selectivity profile against class B MBLs (Fig. S21); type: biochemical
Method: The 1H NMR and 13C NMR spectra for compounds 34a, 34b, 34, 35a, 35b, and 35 […]
as §1
the FC-5 based assay10. […]
concentrations (0 μM, 1 μM, and 100 μM, see Fig. S8). The selectivity profiles of compounds of interest against other B1 MBLs including VIM-511, VIM-110, NDM-1, SPM-1, and BcII, and TEM-112 (class A SBL) were determined using the same method as described above. The inhibitory activities of these compounds against CphA (B2 MBL)13 and L1 (B3 MBL)14 were determined using meropenem and nitrocefin, […]
at 100 μM. The details regarding enzyme concentrations, substrate concentration are in […]
Nuclear Magnetic Resonance (NMR) spectra were recorded using a Bruker AVIII 600 MHz NMR spectrometer equipped with a BB-19F/1H Prodigy N2 cryoprobe using 5 mm diameter NMR tubes (Norell). Typical experimental parameters for Carr-Purcell-Meiboom-Gill (CPMG) NMR spectroscopy were: total echo time, 40 ms; relaxation delay, 2 s; and number of transients, 128. The PROJECT-CPMG sequence (90°x−[τ−180°y−τ−90°y−τ−180°y−τ]n−acq) was applied. 15 Water suppression was achieved by pre-saturation. Data were processed with Bruker 3.1 software. Prior to […]

VIM-1 = VIM-1 (Pseudomonas aeruginosa, UniProt A0A0F7KYQ8); experiment: biochemical; conditions: n ≥ 3
[1] = FC-5 based assay, n ≥ 3, read-out: IC50 (VIM-2)
[2] = FC-5 based assay, n ≥ 3, read-out: pIC50 (VIM-2) (converted)

Compound | IC50 (VIM-2; [1]) [µM] | IC50 (VIM-1) [µM] | further results
O=C(O)/C=C/C(=O)c1ccc(O)cc1 [Compound 1] | – | – | IC50 (VIM-2; IC50 (VIM-2)): 637 µM
O=C(O)C1CC(c2ccccc2F)=NO1 (stereo not shown) [Compound 2] | 993 | – | –
NC(=O)N/N=C/c1cccc(C(=O)O)c1O [Compound 3] | > 1600 | – | –
O=C(O)CC1CC(c2ccc(F)cc2)=NO1 (stereo not shown) [Compound 4] | 557 | – | –
CNCc1ccc(-c2cccc(C(=O)O)c2)o1 [Compound 5] | > 1600 | – | –
O=C(Cc1ccc(Cl)cc1)c1ccc(O)cc1O [Compound 6] | 111 | – | differences between the inhibitory activity with or without excess Zn(II) (VIM-2): no obvious differences; binding to apo-VIM-2 by 1H CPMG NMR (apo-VIM-2): strong binding; also recorded: binds; binding to di-Zn(II) VIM-2 by 1H CPMG NMR (di-Zn(II) VIM-2): strong binding; also recorded: strong binder
NC(=S)N/N=C1\C(=O)Nc2c(C(=O)O)cccc21 [Compound 7] | 199 | – | differences between the inhibitory activity with or without excess Zn(II) (VIM-2): no obvious differences; binding to apo-VIM-2 by 1H CPMG NMR (apo-VIM-2): binding; binding to di-Zn(II) VIM-2 by 1H CPMG NMR (di-Zn(II) VIM-2): binding; also recorded: binds
Cc1c/c(=N\c2ccccc2C(=O)O)n2ncnc2[nH]1 [Compound 8] | > 1600 | – | –
Cc1ccc(-c2cn3nnc(C(=O)O)c3c(=O)[nH]2)cc1 [Compound 9] | 439 | – | –
Cc1oc2c(c1C(=O)O)C(=O)CC(c1ccccc1)C2 (stereo not shown) [Compound 10] | > 1600 | – | –
O=C(O)CCC(NS(=O)(=O)c1ccccc1)C(=O)O (stereo not shown) [Compound 11] | – | – | IC50 (VIM-2; IC50 (VIM-2)): 1110 µM; IC50 (VIM-2; pIC50 (VIM-2)): 1100 µM
O=C(O)C(=Cc1ccc(-c2ccc(Cl)cc2)o1)C(=O)O [Compound 12] | 87 | – | differences between the inhibitory activity with or without excess Zn(II) (VIM-2): no obvious differences; inhibition of the tested class B MBLs (in words) (class B MBLs): broad-spectrum inhibition; binding to apo-VIM-2 by 1H CPMG NMR (apo-VIM-2): weak binding; also recorded: weakly; binding to di-Zn(II) VIM-2 by 1H CPMG NMR (di-Zn(II) VIM-2): strong binding; also recorded: binds strongly
CN(C)c1ccc(/C=C/C(=O)c2ccccc2C(=O)O)cc1 [Compound 13] | 135 | – | differences between the inhibitory activity with or without excess Zn(II) (VIM-2): no obvious differences; inhibition of the tested class B MBLs (in words) (class B MBLs): broad-spectrum inhibition; binding to apo-VIM-2 by 1H CPMG NMR (apo-VIM-2): weak binding; also recorded: weakly; binding to di-Zn(II) VIM-2 by 1H CPMG NMR (di-Zn(II) VIM-2): strong binding; also recorded: binds strongly
O=C(O)C(Cc1ccc(O)cc1)NC1CCS(=O)(=O)C1 (stereo not shown) [Compound 14] | 669 | – | IC50 (VIM-2; [2]): 661 µM
CC(=O)Nc1ccc(S(=O)(=O)N2CCCC2C(=O)O)cc1 (stereo not shown) [Compound 15] | > 1600 | – | –
O=C(O)c1cccc(/C=N/N=C/c2cccc(C(=O)O)c2O)c1O [Compound 18] | 117 | – | binding to apo-VIM-2 by 1H CPMG NMR (apo-VIM-2): binding; also recorded: binds; binding to di-Zn(II) VIM-2 by 1H CPMG NMR (di-Zn(II) VIM-2): binding; also recorded: binds
Cc1cc(N/N=C/c2ccc(O)c(C(=O)O)c2)nc(-c2ccccc2O)n1 [Compound 20] | < 400 | – | differences between the inhibitory activity with or without excess Zn(II) (VIM-2): no obvious differences
O=C(O)c1cccc2c1C(=O)N(Cc1cccnc1)C2 [Compound 21] | 349 | > 400 | –
O=C(O)c1cccc2c1C(=O)N(Cc1ccncc1)C2 [Compound 22] | > 400 | > 400 | –
O=C(O)c1cccc2c1C(=O)N(Cc1ccc(F)cc1)C2 [Compound 23] | 250 | > 400 | –
O=C(O)c1cccc2c1C(=O)N(Cc1ccccc1F)C2 [Compound 24] | 47.1 | > 400 | –

Compound | IC50 (VIM-2; [1]) [µM] | IC50 (VIM-1) [µM] | further results
COc1ccc(CN2Cc3cccc(C(=O)O)c3C2=O)cc1OC [Compound 25] | 320 | > 400 | IC50 (VIM-2; [2]): 316 µM
COc1cc(CN2Cc3cccc(C(=O)O)c3C2=O)cc(OC)c1OC [Compound 26] | > 400 | > 400 | –
CN(C)c1ccc(CN2Cc3cccc(C(=O)O)c3C2=O)cc1 [Compound 27] | 176 | > 400 | IC50 (VIM-2; [2]): 174 µM
CC(c1ccccc1)N1Cc2cccc(C(=O)O)c2C1=O (stereo not shown) [Compound 28] | 168 | > 400 | IC50 (VIM-2; [2]): 166 µM
CC(c1ccncc1)N1Cc2cccc(C(=O)O)c2C1=O (stereo not shown) [Compound 29] | 229 | > 400 | –
O=C(O)c1cccc2c1C(=O)N(c1ccccc1)C2 [Compound 30] | 17.8 | > 400 | –
COc1ccccc1N1Cc2cccc(C(=O)O)c2C1=O [Compound 31] | 133 | > 400 | –
COc1cccc(N2Cc3cccc(C(=O)O)c3C2=O)c1 [Compound 32] | 39.3 | > 400 | –
O=C(O)c1cccc2c1C(=O)N(c1ccccc1Cl)C2 [Compound 33] | 74 | > 400 | –
CN(C)Cc1ccc(N2Cc3cccc(C(=O)O)c3C2=O)cc1 [Compound 34] | 60.3 | > 400 | –
O=C(O)c1cccc2c1C(=O)N(c1ccc(O)c(F)c1)C2 [Compound 35] | 7.7 | > 400 | –
O=C(O)c1cccc2c1C(=O)N(Cc1cccs1)C2 [Compound 36] | 153 | > 400 | –
O=C(O)c1cccc2c1C(=O)N(C1CCCC1)C2 [Compound 37] | 68.1 | > 400 | –
O=C(O)c1cccc2c1C(=O)N(CC1CCCO1)C2 (stereo not shown) [Compound 38] | > 400 | > 400 | –
O=C(O)c1cccc2c1C(=O)N(CCc1ccccc1)C2 [Compound 39] | 71.9 | > 400 | –
COCCCN1Cc2cccc(C(=O)O)c2C1=O [Compound 40] | > 400 | > 400 | –
C=CCC1c2cccc(C(=O)O)c2C(=O)N1c1ccc(F)cc1 (stereo not shown) [Compound 41] | 24.6 | > 400 | –
C=CCC1c2cccc(C(=O)O)c2C(=O)N1c1cccc(OC)c1 (stereo not shown) [Compound 42] | 20.3 | > 400 | –
C=CCC1c2cccc(C(=O)OC)c2C(=O)N1c1ccccc1 (stereo not shown) [Compound 43] | > 400 | > 400 | inhibitory activity against VIM-2 (in words) (VIM-2): much lower inhibitory potency
C[C@H](CS)C(=O)N1CCC[C@H]1C(=O)O [L-Captopril, reference compound] | – | – | binding to apo-VIM-2 by 1H CPMG NMR (apo-VIM-2): very weak binding; also recorded: very weakly; binding to di-Zn(II) VIM-2 by 1H CPMG NMR (di-Zn(II) VIM-2): strong binding; also recorded: binds strongly
